Test results as given in patent US9265771B2, “Method for treating Lyme disease” (Zoetis Services LLC, priority 2012, dated 2016).

Tests used:
[1] = system: B. burgdorferi; test: Study A: SNAP-4Dx ELISA in tick-infected dogs; type: in vivo, beagle dogs; details: N=8
Source text: Three outer surface proteins (Osp) on B. burgdorferi are important for diagnosis and prevention, and are expressed by the organism in response to its local environment. […] OspF is another surface protein that is generally observed in late-stage disease. The C in […] refers to a 25-amino acid, C6 peptide in the sixth invariable region of an outer membrane lipoprotein (VIsE). Antibody against C6 is highly accurate as a serologic diagnosis of Lyme disease independent of a subject's (e.g., canine) vaccination status. Further, the generation of C6 antibodies implies an active infection with viable spirochetes. Serological methods for detecting B. burgdorfer/Lyme disease were conducted using the IDEXX qualitative SNAP-4Dx ELISA and the Quantitative C6 (Quant C6 or QC6) diagnostic kits, which are enzyme linked immunosorbent assays against the previously described 25-amino-acid C6 peptide. […]
Twenty-three adult female beagle dogs were used in this study; all were sero-negative for Borrelia, not vaccinated with any Borrelia spp vaccines, and acclimated at the study facility for seven days prior to any study activities. […] Dogs were monitored 21-days post-challenge for pyrexia, and the entire post-challenge period for clinical signs of Lyme disease (lameness, ataxia, anorexia, lymphadenopathy and depression). […]

[2] = system: B. burgdorferi; test: Study A: Quantitative C6 (QC6) antibody ELISA in tick-infected dogs; type: in vivo, beagle dogs; details: Convenia Rx Days 83 and 97
Source text: Three outer surface proteins (Osp) on B. burgdorferi are important for diagnosis and prevention, and are expressed by the organism in response to its local environment. […] OspF is another surface protein that is generally observed in late-stage disease. The C in […] refers to a 25-amino acid, C6 peptide in the sixth invariable region of an outer membrane lipoprotein (VIsE). Antibody against C6 is highly accurate as a serologic diagnosis of Lyme disease independent of a subject's (e.g., canine) vaccination status. Further, the generation of C6 antibodies implies an active infection with viable spirochetes. Serological methods for detecting B. burgdorfer/Lyme disease were conducted using the IDEXX qualitative SNAP-4Dx ELISA and the Quantitative C6 (Quant C6 or QC6) diagnostic kits, which are enzyme linked immunosorbent assays against the previously described 25-amino-acid C6 peptide. QC6 ELISA data, units/mL, are useful for guidance in initiating and evaluating response to therapy (See Levy S A, O'Connor T P, Hanscom J L, Shields P, et al. Quantitative measurement of a C6 antibody following antibiotic treatment of Borrelia burgdorferi antibody-positive, nonclinical dogs. Clin Vacc Immunol 2008; 15(1):115-119 and Littman M P, Goldstein R E, Labato M A, et al. ACVIM Small Animal Concensus Statement on Lyme Disease in Dogs: Diagnosis, Treatment and Prevention. J Vet Intern Med 2006; 20: 422-434).
Twenty-three adult female beagle dogs were used in this study; all were sero-negative for Borrelia, not vaccinated with any Borrelia spp vaccines, and acclimated at the study facility for seven days prior to any study activities. The study was conducted under National Research Council guidelines (1996. Dogs were randomized to a non-infected control (n=7 dogs) group, or infected groups (n=8 dogs/region) using ticks from two regions of the USA, Region A (New England (NE), i.e., Rhode Island) and Region B (Midwest (MW), i.e., Wisconsin). Dogs were infected on Day 0 with up to 30 Ixodes scapularis ticks per dog. Tick attachment was monitored daily and after nine days, remaining ticks were harvested and all dogs were treated with two topical applications of an approved acaricide observing a 30-day interval between applications. Dogs were monitored 21-days post-challenge for pyrexia, and the entire post-challenge period for clinical signs of Lyme disease (lameness, ataxia, anorexia, lymphadenopathy and depression).
Blood was collected from each dog weekly to Day 28, then every two-weeks for the remainder of the study (166 days). Serum antibodies to Borrelia were assayed using SNAP-4Dx and QC6 ELISA. Two skin punch biopsies were collected near tick attachment sites from each dog every 28 days post-challenge for bacterial culture.
Comparisons included serology, skin culture results and joint pathology.

[3] = canine; cited from earlier work
[4] = system: B. burgdorferi outer surface protein OspC; test: Study B: fluorescent-bead-based multiplex assay, antibodies against OspC; type: in vivo, beagle dogs; details: Day 111
Procedure: Thirty-two (18 male and 14 female) beagle dogs were sero-negative for Borrelia burgdorferi, not vaccinated with any Borrelia spp vaccines, and acclimated at the study facility for seven days. The study was conducted under National Research Council guidelines (1996). […] Field-caught Ixodes from the northeast USA were placed on the dogs without containment chambers for 10 days; after ticks fed to repletion, dogs were treated with two applications of an approved topical acaricide with a 30-day interval between applications.
Forty days post-challenge, and prior to antibiotic treatments, blood was collected from each dog as were two skin biopsy punch samples near tick attachment sites. Blood was collected approximately monthly post-treatment. Skin biopsies were taken near the tick attachment site on Days 48/49, 118, 146, 180, and 315. Serum antibodies to Borrelia were assayed using the IDEXX SNAP-4Dx and QC6 ELISA. In cooperation with Cornell University, serum samples were analyzed using fluorescent-bead-based multiplex assays detecting antibodies against B. burgdorferi outer surface proteins OspA, OspC, and OspF. Data were expressed as median fluorescent intensities (MFI), and shown to be specific and sensitive to provide interpretative guidelines regarding infection. The skin biopsies were collected for a polymerase chain reaction (PCR; FlaB) assay and cultured for spirochete detection. […]

CO/N=C(\C(=O)N[C@@H]1C(=O)N2C(C(=O)[O-])=C([C@@H]3CCCO3)CS[C@H]12)c1csc(N)n1.[Na+] [Convenia, (6R,7R)-7-[[(2Z)-(2-amino-4-thiazolyl)(methoxyimino)acetyl]-amino]-8-oxo-3-[(2S)-tetrahydro-2-furanyl]-5-thia-1-azabicyclo[4.2.0]oct-2-ene-2-carboxylic acid, monosodium salt]
Dogs SNAP-4Dx positive for B. burgdorferi ([1]; prior to administration of Convenia on Day 83): 100% | Number of dogs remaining SNAP-4Dx positive ([1]; through the study (Day 166), 8 mg/kg sc Days 83 and 97): five to seven | Mean QC6 Antibody Levels ([2]; Group 4 Control (no ticks), Day 0): 0 U/mL | Mean QC6 Antibody Levels ([2]; Group 4 Control (no ticks), Day 7): 0 U/mL | Mean QC6 Antibody Levels ([2]; Group 4 Control (no ticks), Day 20): 0 U/mL | Mean QC6 Antibody Levels ([2]; Group 4 Control (no ticks), Day 27): 0 U/mL | Mean QC6 Antibody Levels ([2]; Group 4 Control (no ticks), Day 41): 0 U/mL | Mean QC6 Antibody Levels ([2]; Group 4 Control (no ticks), Day 54): 0 U/mL | Mean QC6 Antibody Levels ([2]; Group 4 Control (no ticks), Day 69): 0 U/mL | Mean QC6 Antibody Levels ([2]; Group 4 Control (no ticks), Day 83): 0 U/mL | Mean QC6 Antibody Levels ([2]; Group 4 Control (no ticks), Day 97): 0 U/mL | Mean QC6 Antibody Levels ([2]; Group 4 Control (no ticks), Day 111): 0 U/mL | Mean QC6 Antibody Levels ([2]; Group 4 Control (no ticks), Day 125): 0 U/mL | Mean QC6 Antibody Levels ([2]; Group 4 Control (no ticks), Day 138): 0 U/mL | Mean QC6 Antibody Levels ([2]; Group 4 Control (no ticks), Day 153): 0 U/mL | Mean QC6 Antibody Levels ([2]; Group 4 Control (no ticks), Day 166): 0 U/mL | Mean QC6 Antibody Levels ([2]; Group 5 NE Ticks, Day 0 (infestation)): 0 U/mL | Mean QC6 Antibody Levels ([2]; Group 5 NE Ticks, Day 7 (pre-treatment)): 0 U/mL | Mean QC6 Antibody Levels ([2]; Group 5 NE Ticks, Day 20 (pre-treatment)): 148.5 U/mL | Mean QC6 Antibody Levels ([2]; Group 5 NE Ticks, Day 27 (pre-treatment)): 148.75 U/mL | Mean QC6 Antibody Levels ([2]; Group 5 NE Ticks, Day 41 (pre-treatment)): 239.25 U/mL | Mean QC6 Antibody Levels ([2]; Group 5 NE Ticks, Day 54 (pre-treatment)): 209.5 U/mL | Mean QC6 Antibody Levels ([2]; Group 5 NE Ticks, Day 69 (pre-treatment)): 270.75 U/mL | Mean QC6 Antibody Levels ([2]; Group 5 NE Ticks, Day 83 (first dose)): 122 U/mL | Mean QC6 Antibody Levels ([2]; Group 5 NE Ticks, Day 97 (second dose)): 99.5 U/mL | Mean QC6 Antibody Levels ([2]; Group 5 NE Ticks, Day 111): 48.25 U/mL | Mean QC6 Antibody Levels ([2]; Group 5 NE Ticks, Day 125): 20.5 U/mL | Mean QC6 Antibody Levels ([2]; Group 5 NE Ticks, Day 138): 7.75 U/mL | Mean QC6 Antibody Levels ([2]; Group 5 NE Ticks, Day 153): 4.25 U/mL | Mean QC6 Antibody Levels ([2]; Group 5 NE Ticks, Day 166): 3 U/mL | Mean QC6 Antibody Levels ([2]; Group 6 MW Ticks, Day 0 (infestation)): 0 U/mL | Mean QC6 Antibody Levels ([2]; Group 6 MW Ticks, Day 7 (pre-treatment)): 0 U/mL | Mean QC6 Antibody Levels ([2]; Group 6 MW Ticks, Day 20 (pre-treatment)): 66.5 U/mL | Mean QC6 Antibody Levels ([2]; Group 6 MW Ticks, Day 27 (pre-treatment)): 155 U/mL | Mean QC6 Antibody Levels ([2]; Group 6 MW Ticks, Day 41 (pre-treatment)): 147.25 U/mL | Mean QC6 Antibody Levels ([2]; Group 6 MW Ticks, Day 54 (pre-treatment)): 149.25 U/mL | Mean QC6 Antibody Levels ([2]; Group 6 MW Ticks, Day 69 (pre-treatment)): 110.75 U/mL | Mean QC6 Antibody Levels ([2]; Group 6 MW Ticks, Day 83 (first dose)): 93.75 U/mL | Mean QC6 Antibody Levels ([2]; Group 6 MW Ticks, Day 97 (second dose)): 74.25 U/mL | Mean QC6 Antibody Levels ([2]; Group 6 MW Ticks, Day 111): 51.5 U/mL | Mean QC6 Antibody Levels ([2]; Group 6 MW Ticks, Day 125): 29 U/mL | Mean QC6 Antibody Levels ([2]; Group 6 MW Ticks, Day 138): 22 U/mL | Mean QC6 Antibody Levels ([2]; Group 6 MW Ticks, Day 153): 8.25 U/mL | Mean QC6 Antibody Levels ([2]; Group 6 MW Ticks, Day 166): 6.5 U/mL | Elimination half-life [3]: about 133 hours | Number of dogs above infected threshold (antibody-OspC) [4]: one
